Assay results as given in ChEMBL document CHEMBL5465560, “Selectivity Literature for EUbOPEN Chemogenomic Library” (2024).

Experiments:
[1] = target: Tyrosine-protein kinase Blk (Homo sapiens) (UniProt P51451); experiment: Selectivity interaction (KinomeScan (DiscoverX)) EUB0000666a BLK; conditions: at 10 µM
[2] = target: T1, Mitogen-activated protein kinase 12 (Homo sapiens) (UniProt P53778); experiment: Selectivity interaction (Kinase panel (literature)) EUB0001199aCl MAPK12; conditions: at 1 µM
T1 sequence (whole entry): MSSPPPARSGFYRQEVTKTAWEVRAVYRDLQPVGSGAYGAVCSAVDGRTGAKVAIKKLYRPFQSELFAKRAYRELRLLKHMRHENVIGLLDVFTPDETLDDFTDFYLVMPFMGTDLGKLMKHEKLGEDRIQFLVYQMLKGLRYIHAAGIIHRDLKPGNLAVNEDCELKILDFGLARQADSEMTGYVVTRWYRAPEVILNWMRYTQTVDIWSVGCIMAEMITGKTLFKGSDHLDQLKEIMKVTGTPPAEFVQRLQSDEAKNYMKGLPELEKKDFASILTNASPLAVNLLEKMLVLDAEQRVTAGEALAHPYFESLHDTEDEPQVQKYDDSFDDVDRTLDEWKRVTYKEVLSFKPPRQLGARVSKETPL

[3] = target: T2, Dual specificity protein kinase TTK (Homo sapiens) (UniProt P33981); experiment: Selectivity interaction (KinomeScan (DiscoverX)) EUB0000607a TTK; conditions: at 10 µM
T2 sequence (whole entry): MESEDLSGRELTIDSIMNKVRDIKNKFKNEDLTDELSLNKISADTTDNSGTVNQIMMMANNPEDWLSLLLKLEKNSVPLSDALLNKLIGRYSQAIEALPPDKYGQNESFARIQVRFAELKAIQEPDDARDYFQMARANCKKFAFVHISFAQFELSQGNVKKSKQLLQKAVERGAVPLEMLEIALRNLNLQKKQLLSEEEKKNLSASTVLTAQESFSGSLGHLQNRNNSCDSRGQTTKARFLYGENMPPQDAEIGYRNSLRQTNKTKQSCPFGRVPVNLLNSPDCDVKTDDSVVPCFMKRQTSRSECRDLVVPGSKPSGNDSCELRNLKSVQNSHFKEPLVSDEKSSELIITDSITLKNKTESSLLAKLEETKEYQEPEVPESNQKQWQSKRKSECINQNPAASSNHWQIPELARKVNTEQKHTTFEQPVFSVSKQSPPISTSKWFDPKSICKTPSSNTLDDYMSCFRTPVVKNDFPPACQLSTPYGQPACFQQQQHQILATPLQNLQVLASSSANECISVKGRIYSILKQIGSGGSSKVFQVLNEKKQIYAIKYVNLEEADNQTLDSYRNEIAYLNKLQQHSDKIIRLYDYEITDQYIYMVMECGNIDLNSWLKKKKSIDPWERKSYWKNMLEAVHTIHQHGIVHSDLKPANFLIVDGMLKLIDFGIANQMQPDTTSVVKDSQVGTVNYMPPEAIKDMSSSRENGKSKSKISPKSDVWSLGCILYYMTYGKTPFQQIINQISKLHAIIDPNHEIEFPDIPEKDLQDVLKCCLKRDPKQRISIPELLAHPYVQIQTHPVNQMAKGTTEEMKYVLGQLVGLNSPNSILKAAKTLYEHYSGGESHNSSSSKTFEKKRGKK

[4] = target: T3, Mitogen-activated protein kinase kinase kinase 2 (Homo sapiens) (UniProt Q9Y2U5); experiment: Selectivity interaction (KinomeScan (DiscoverX)) EUB0000607a MAP3K2; conditions: at 10 µM
T3 sequence (whole entry): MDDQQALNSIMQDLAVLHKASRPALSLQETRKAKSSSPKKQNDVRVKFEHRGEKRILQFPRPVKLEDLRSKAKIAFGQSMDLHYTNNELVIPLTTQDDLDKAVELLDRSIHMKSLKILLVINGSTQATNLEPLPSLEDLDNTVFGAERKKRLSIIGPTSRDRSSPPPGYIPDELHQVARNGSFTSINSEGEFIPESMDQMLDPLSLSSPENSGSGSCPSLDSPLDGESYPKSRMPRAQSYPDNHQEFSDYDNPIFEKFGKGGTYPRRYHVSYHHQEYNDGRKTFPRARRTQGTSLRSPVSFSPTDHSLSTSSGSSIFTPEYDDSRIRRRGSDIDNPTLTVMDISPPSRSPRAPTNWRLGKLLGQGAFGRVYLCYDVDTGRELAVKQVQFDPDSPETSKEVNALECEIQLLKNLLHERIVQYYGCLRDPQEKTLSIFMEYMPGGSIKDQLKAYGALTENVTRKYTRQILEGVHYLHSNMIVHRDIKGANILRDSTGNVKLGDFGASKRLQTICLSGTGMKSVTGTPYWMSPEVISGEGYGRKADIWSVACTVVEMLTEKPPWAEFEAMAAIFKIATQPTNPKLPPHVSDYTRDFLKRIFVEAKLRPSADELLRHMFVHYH

[5] = target: Serine/threonine-protein kinase 10 (Homo sapiens) (UniProt O94804); experiment: Selectivity interaction (ActivX KiNativ screen (kinase selectivity in THP-1 cell lysates)) EUB0000639a STK10; assay type: subcellular; conditions: lysate, at 1 µM
[6] = target: Serine/threonine-protein kinase PRP4 homolog (Homo sapiens) (UniProt Q13523); experiment: Selectivity interaction (ActivX KiNativ screen (kinase selectivity in THP-1 cell lysates)) EUB0000639a PRPF4; assay type: subcellular; conditions: lysate, at 0.01 µM
[7] = target: Phosphorylase b kinase gamma catalytic chain, skeletal muscle/heart isoform (Homo sapiens) (UniProt Q16816); experiment: Selectivity interaction (KinomeScan (DiscoverX)) EUB0000695a PHKG1; conditions: at 100 nM
[8] = target: Protein kinase C delta type (Homo sapiens) (UniProt Q05655); experiment: Selectivity interaction (KinomeScan (DiscoverX)) EUB0000695a PRKCD; conditions: at 100 nM
[9] = target: Dual specificity tyrosine-phosphorylation-regulated kinase 1A (Homo sapiens, UniProt Q13627); experiment: Selectivity interaction (Enzymatic assay (Eurofins)) EUB0001049a DYRK1A
[10] = target: Mitogen-activated protein kinase kinase kinase kinase 5 (Homo sapiens) (UniProt Q9Y4K4); experiment: Selectivity interaction (Ambit KINOMEscan and KiNATiv profiling in Jurkat cells) EUB0000090b MAP4K5; assay type: cell-based; conditions: at 1 µM
[11] = target: Tyrosine-protein kinase SYK (Homo sapiens, UniProt P43405); experiment: Selectivity interaction (KinomeScan (DiscoverX)) EUB0000655a SYK; conditions: at 10 µM
[12] = target: Dual specificity mitogen-activated protein kinase kinase 1 (Homo sapiens, UniProt Q02750); experiment: Selectivity interaction (Kinase panel (KiNativ target engagement assay in Jurkat cells)) EUB0001635a MAP2K1; assay type: cell-based; conditions: Selectivity number of off-targets 0.0, Selectivity number of targets 233.0, Source Knowledge https://www.sciencedirect.com/science/article/pii/S2451945619300674?via%3Dihub, at 1 µM
[13] = target: Serine/threonine-protein kinase 26 (Homo sapiens, UniProt Q9P289); experiment: Selectivity interaction (KinomeScan (DiscoverX)) EUB0000618a STK26; conditions: at 10 µM
[14] = target: Mitogen-activated protein kinase 8 (Homo sapiens, UniProt P45983); experiment: Selectivity interaction (KinomeScan (DiscoverX)) EUB0000618a MAPK8; conditions: at 10 µM
Chain of Mitogen-activated protein kinase 8 (P45983 whole entry): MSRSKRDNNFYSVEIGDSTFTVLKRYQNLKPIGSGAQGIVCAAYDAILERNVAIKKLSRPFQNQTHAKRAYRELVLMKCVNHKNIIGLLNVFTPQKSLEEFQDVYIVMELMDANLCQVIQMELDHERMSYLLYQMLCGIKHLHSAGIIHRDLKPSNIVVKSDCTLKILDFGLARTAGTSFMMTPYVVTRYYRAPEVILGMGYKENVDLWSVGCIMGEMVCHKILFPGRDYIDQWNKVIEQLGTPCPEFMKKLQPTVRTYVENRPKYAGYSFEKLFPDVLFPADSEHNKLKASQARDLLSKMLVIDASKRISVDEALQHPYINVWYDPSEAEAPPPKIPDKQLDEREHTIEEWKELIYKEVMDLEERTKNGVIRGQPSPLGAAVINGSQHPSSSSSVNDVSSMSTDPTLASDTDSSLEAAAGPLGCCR

Chain of Phosphorylase b kinase gamma catalytic chain, skeletal muscle/heart isoform (Homo sapiens) (Q16816 whole entry, looked up, canonical isoform): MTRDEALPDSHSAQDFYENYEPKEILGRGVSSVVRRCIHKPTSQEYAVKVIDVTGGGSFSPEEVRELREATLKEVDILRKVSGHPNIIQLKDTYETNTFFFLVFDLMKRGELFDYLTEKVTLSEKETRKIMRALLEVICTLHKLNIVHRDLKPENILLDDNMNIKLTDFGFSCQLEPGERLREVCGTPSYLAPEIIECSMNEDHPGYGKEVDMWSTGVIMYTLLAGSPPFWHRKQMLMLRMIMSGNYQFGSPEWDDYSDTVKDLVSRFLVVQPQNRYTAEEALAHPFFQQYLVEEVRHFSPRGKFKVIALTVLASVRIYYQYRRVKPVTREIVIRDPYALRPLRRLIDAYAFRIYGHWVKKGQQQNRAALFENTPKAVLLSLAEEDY
Chain of Dual specificity mitogen-activated protein kinase kinase 1 (Q02750 whole entry): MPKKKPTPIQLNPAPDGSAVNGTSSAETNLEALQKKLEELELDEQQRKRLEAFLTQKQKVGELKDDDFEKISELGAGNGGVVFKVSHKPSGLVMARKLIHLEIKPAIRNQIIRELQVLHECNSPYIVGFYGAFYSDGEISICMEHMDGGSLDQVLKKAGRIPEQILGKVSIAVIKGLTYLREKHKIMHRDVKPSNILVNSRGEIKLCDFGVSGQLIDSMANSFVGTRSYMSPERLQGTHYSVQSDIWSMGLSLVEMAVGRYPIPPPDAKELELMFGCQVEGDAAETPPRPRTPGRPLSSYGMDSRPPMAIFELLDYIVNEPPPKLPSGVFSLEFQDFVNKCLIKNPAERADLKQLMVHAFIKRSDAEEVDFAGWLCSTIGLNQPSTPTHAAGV
Chain of Serine/threonine-protein kinase 26 (Q9P289 2-416 limits assumed): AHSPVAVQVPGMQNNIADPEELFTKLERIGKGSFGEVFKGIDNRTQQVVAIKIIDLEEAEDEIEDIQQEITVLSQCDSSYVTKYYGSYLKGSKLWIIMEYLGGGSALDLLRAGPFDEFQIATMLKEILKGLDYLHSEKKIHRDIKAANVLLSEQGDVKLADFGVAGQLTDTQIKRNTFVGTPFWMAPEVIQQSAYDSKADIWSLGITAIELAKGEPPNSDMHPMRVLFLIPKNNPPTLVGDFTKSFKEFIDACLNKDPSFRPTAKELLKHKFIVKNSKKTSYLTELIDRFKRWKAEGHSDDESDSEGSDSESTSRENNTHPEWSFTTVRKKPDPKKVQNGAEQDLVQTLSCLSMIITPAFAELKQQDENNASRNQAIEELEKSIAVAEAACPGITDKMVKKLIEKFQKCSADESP
Chain of Serine/threonine-protein kinase PRP4 homolog (Homo sapiens) (Q13523 whole entry, canonical isoform): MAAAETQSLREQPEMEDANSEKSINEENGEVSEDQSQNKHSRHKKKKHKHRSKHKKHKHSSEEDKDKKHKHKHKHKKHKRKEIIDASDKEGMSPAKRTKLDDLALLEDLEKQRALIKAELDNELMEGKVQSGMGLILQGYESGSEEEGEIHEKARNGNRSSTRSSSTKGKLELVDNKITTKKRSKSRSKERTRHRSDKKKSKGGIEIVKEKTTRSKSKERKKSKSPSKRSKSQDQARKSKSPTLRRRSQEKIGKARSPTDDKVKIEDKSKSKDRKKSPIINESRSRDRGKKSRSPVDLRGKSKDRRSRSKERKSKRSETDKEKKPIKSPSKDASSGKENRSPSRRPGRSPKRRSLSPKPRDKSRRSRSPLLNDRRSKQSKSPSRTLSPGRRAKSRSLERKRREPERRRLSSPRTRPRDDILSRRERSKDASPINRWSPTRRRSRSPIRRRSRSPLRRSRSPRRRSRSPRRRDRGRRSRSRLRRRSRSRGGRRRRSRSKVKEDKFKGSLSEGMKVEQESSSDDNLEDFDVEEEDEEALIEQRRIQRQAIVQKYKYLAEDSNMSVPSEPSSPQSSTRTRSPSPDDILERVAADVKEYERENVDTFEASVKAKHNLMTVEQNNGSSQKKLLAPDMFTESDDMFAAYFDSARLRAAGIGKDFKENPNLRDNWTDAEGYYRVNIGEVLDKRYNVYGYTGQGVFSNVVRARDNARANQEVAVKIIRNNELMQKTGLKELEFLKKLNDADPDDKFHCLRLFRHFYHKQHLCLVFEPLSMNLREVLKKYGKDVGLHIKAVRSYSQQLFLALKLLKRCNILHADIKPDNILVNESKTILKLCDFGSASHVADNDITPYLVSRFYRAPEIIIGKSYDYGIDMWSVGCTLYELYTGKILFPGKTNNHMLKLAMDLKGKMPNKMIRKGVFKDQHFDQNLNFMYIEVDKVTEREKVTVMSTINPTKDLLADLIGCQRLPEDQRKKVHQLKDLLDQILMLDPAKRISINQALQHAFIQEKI
Chain of Mitogen-activated protein kinase kinase kinase kinase 5 (Homo sapiens) (Q9Y4K4 whole entry, looked up): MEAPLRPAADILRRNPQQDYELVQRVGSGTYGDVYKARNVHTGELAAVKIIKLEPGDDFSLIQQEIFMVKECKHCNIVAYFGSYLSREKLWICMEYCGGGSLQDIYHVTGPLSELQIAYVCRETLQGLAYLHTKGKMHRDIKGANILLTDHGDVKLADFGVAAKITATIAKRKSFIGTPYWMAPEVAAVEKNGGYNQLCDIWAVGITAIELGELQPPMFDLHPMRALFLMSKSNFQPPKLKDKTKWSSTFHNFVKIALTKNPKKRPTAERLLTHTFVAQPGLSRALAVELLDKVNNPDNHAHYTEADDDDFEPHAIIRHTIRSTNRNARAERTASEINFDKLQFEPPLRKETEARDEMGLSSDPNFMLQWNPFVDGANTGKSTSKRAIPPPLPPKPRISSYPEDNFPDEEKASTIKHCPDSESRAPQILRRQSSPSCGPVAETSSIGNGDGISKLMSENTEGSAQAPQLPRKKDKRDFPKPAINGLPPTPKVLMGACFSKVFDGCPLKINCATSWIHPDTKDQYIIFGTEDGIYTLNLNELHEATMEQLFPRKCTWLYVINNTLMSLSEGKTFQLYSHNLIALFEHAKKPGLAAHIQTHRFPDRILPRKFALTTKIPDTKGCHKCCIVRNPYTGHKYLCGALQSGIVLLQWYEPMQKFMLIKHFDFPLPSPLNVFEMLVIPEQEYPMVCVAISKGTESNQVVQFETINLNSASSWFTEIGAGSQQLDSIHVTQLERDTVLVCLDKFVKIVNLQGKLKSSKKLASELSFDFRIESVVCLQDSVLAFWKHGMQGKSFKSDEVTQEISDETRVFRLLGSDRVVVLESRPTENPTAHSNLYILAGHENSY
Chain of Serine/threonine-protein kinase 10 (Homo sapiens) (O94804 whole entry, looked up): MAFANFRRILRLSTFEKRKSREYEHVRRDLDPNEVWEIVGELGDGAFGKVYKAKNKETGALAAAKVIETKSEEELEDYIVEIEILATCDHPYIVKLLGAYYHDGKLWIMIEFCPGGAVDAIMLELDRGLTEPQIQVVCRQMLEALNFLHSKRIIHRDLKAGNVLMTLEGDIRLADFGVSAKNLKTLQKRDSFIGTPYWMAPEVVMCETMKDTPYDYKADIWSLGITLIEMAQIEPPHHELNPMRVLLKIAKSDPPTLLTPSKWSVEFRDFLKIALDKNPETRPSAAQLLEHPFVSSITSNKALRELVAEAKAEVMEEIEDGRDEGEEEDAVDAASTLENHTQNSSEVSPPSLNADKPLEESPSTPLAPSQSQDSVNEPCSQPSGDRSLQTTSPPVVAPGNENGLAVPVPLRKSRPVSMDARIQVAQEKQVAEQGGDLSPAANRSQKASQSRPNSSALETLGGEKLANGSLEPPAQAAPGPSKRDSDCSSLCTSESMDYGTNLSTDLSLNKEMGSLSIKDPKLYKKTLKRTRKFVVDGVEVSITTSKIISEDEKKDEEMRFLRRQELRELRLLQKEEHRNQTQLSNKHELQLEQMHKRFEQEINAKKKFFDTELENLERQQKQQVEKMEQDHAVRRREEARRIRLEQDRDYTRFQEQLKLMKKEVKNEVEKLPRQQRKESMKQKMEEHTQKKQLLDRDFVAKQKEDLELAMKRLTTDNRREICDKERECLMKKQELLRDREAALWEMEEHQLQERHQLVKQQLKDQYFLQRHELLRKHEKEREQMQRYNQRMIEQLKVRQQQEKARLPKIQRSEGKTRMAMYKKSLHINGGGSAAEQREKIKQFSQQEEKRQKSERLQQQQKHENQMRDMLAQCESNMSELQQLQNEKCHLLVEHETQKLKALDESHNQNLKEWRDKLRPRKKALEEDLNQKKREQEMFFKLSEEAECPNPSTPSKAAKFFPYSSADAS
Chain of Tyrosine-protein kinase Blk (Homo sapiens) (P51451 2-505 limits assumed): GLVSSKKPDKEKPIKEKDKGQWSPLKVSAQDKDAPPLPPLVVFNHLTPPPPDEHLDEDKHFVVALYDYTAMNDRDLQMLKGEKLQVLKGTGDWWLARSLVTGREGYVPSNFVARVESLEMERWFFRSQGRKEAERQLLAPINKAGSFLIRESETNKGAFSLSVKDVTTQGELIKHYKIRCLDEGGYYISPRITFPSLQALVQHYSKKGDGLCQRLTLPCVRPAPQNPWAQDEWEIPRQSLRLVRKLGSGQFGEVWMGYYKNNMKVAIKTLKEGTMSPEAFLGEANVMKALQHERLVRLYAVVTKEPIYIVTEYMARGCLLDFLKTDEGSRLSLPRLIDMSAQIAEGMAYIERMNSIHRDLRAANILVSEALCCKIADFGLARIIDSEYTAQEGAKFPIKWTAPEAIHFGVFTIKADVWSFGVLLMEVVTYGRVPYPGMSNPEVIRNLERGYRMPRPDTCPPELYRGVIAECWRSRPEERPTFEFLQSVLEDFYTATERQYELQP

O=C(NOC[C@H](O)CO)c1ccc(F)c(F)c1Nc1ccc(I)cc1F
% of control [1]: 83%

CN1Cc2nccc(-c3cn(C)nc3-c3ccc(F)cc3)c2C1=O
% of inhibition [2]: 10%

CNC(=O)Nc1ccc(-c2nc(N3CC4CCC(C3)O4)c3cnn(C4CCC5(CC4)OCCO5)c3n2)cc1
% of control [3]: 100% | % of control [4]: 95%

CC[C@@H]1[C@H](F)C(=O)N[C@@H]1COc1nccc2cc(C(N)=O)c(OC)cc12 [ZIMLOVISERTIB]
% of inhibition [5]: -15.7% | % of inhibition [6]: 11%

Cc1cc(F)c(C(=O)Nc2cccc(-c3nncn3C(C)C)n2)cc1-n1cnc(C2CC2)c1
% of control [7]: 98% | % of control [8]: 100%

COc1cc(Nc2nc(C)cc(-c3cnn4nc(OC)ccc34)n2)cc(C(F)(F)F)c1
IC50 [9]: > 10 µM

CN(C)C/C=C/C(=O)Nc1ccc(C(=O)N2CCCC(Nc3ncc(Cl)c(-c4c[nH]c5ccccc45)n3)C2)cc1 (centres undefined)
% of control [10]: 81%

CN(C)CCOc1ccc(-c2nc(-c3ccncc3)c(-c3ccc4c(c3)CC/C4=N\O)[nH]2)cc1
% of control [11]: 100%

C=CC(=O)Nc1ccc(C(=O)Nc2[nH]nc3c2CN(C(=O)N[C@H](CN(C)C)c2ccccc2)C3(C)C)cc1
% of engagement [12]: -2.4%

O[C@H]1CC[C@H](Nc2ncc3nc(Nc4c(F)cc(F)cc4F)n([C@H]4CCOC4)c3n2)CC1
% of control [13]: 82% | % of control [14]: 0%
